# Where “and” joins values, the source holds several entries; their conditions need not be identical. Identical values can stand only once. Entries after “also recorded” stand apart in the source; their conditions may differ.
# Key:
# [1] = adults with NSCLC; cited from earlier work
# [2] = test system: ALK-driven refractory or relapsed neuroblastoma; assay: Anti-tumor response: best overall response by NANT response criteria version 2.0; assay type: in vivo, human
# From the text: Patients underwent disease staging at baseline, after courses 2 and 4 and then every four courses thereafter. The primary endpoint for response analysis is the BOR, defined as the best response observed before progression or start of another therapy. […] Response was graded according to the NANT response criteria version 2.0 (ref. [26]), modified from the International Neuroblastoma Response Criteria (INRC)[48]. NANT response criteria use three components for assessment of overall response: soft tissue response assessed by anatomical imaging and avidity on MIBG or FDG-PET; bone response assessed by uptake in bone by MIBG or bone involvement on FDG-PET; and bone marrow response assessed by morphology on bilateral aspirates and biopsies. Each response component (soft tissue, bone and bone marrow) are graded as CR, PR, SD and PD. Overall response grading is defined as: CR, if a response of CR in all components that are involved at baseline; PR, if a response of PR or better in all involved components; MR, if a response of PR or better but with at least one involved component as SD and no PD in all involved components; SD, if a response of SD in all involved components; and PD, if a response of PD in at least one involved component. The overall response definitions are identical to overall responses (CR, PR, SD and PD) as defined by the INRC. Response assessment is initially performed by sites and reviewed against source documents by NANT operations. Additional blinded central review of all radiological or pathological data was conducted for patients with overall PR or better and, in addition, radiologic pathological data of all involved sites for patients with MR to assign the final BOR on this study. Response by MIBG was determined using the Curie criteria. RR was determined as the proportion of patients with BOR of CR and PR in each cohort. Based on an international consensus by the National Cancer Institute Clinical Trials Planning Committee to refine tumor site eligibility criteria and evaluation of disease response for early-phase clinical trials in children with high-risk recurrent, refractory and progressive neuroblastoma, we also performed an ad hoc analysis to determine a modified RR that includes the proportion of patients with BOR of CR, PR and MR.
# [3] = Cohort A1, Dose Level 1, individual patient
# [4] = Cohort A1, Dose Level 3, individual patient
# [5] = Cohort A1, Dose Level 4, individual patient
# [6] = Cohort A2, Dose Level 3A, individual patient
# [7] = Cohort A2, Dose Level 4A, individual patient
# [8] = Cohort B2 (with topotecan/cyclophosphamide), DL4
# [9] = Cohort B2 (with topotecan/cyclophosphamide), DL5
# [10] = Cohort B2, Dose Level 4B, individual patient
# [11] = Cohort B2, Dose Level 5B, individual patient
structure (smiles),measurement,setting,value
"C[C@H]1Oc2cc(cnc2N)-c2c(nn(C)c2C#N)CN(C)C(=O)c2ccc(F)cc21 [Lorlatinib, (10R)-7-amino-12-fluoro-2,10,16-trimethyl-15-oxo-10,15,16,17-tetrahydro-2H-8,4-(metheno)pyrazolo[4,3-h][2,5,11]-benzoxadiazacyclotetradecine-3-carbonitrile]",adult RP2D,[1],100 mg per day
same,patients with PD before or by the end of course 2,"[2]; <18 years, MYCN-amplified/ALK-mutated neuroblastoma (6/7), cohort A1",86%
same,"CR, patients","[2]; Cohort A1 (N= 23), Total",1
same,"MR, patients","[2]; Cohort A1 (N= 23), Total",4
same,"PD, patients","[2]; Cohort A1 (N= 23), Total",12
same,"PR, patients","[2]; Cohort A1 (N= 23), Total",2
same,CR+PR Rate,"[2]; Cohort A1, DL1",1/3
same,CR+PR+MR Rate,"[2]; Cohort A1, DL1",2/3
same,"CR, patients","[2]; Cohort A1, DL1",0
same,"MR, patients","[2]; Cohort A1, DL1",1
same,"PD, patients","[2]; Cohort A1, DL1",1
same,"PR, patients","[2]; Cohort A1, DL1",1
same,CR+PR Rate,"[2]; Cohort A1, DL2",0/2
same,CR+PR+MR Rate,"[2]; Cohort A1, DL2",0/2
same,"CR, patients","[2]; Cohort A1, DL2",0
same,"MR, patients","[2]; Cohort A1, DL2",0
same,"PD, patients","[2]; Cohort A1, DL2",2
same,"PR, patients","[2]; Cohort A1, DL2",0
same,CR+PR Rate,"[2]; Cohort A1, DL3",0/3
same,CR+PR+MR Rate,"[2]; Cohort A1, DL3",0/3
same,"CR, patients","[2]; Cohort A1, DL3",0
same,"MR, patients","[2]; Cohort A1, DL3",0
same,"PD, patients","[2]; Cohort A1, DL3",2
same,"PR, patients","[2]; Cohort A1, DL3",0
same,CR+PR Rate,"[2]; Cohort A1, DL4",0/9
same,CR+PR+MR Rate,"[2]; Cohort A1, DL4",2/9
same,"CR, patients","[2]; Cohort A1, DL4",0
same,"MR, patients","[2]; Cohort A1, DL4",2
same,"PD, patients","[2]; Cohort A1, DL4",5
same,"PR, patients","[2]; Cohort A1, DL4",0
same,CR+PR Rate,"[2]; Cohort A1, DL5",2/6
same,CR+PR+MR Rate,"[2]; Cohort A1, DL5",3/6
same,"CR, patients","[2]; Cohort A1, DL5",1
same,"MR, patients","[2]; Cohort A1, DL5",1
same,"PD, patients","[2]; Cohort A1, DL5",2
same,"PR, patients","[2]; Cohort A1, DL5",1
same,Course Best overall response is achieved,[2]; [3],14 and 2
same,Patient status at end of course,[2]; [3],Off therapy
same,Course Best overall response is achieved,"[2]; Cohort A1, Dose Level 2, individual patient",2
same,Course Best overall response is achieved,[2]; [4],2
same,Patient status at end of course,[2]; [4],Off therapy
same,Course Best overall response is achieved,[2]; [5],2
same,Patient status at end of course,[2]; [5],Off therapy
same,Course Best overall response is achieved,"[2]; Cohort A1, Dose Level 5, individual patient",4 and 6 and 2
same,"CR, patients","[2]; Cohort A2 (N=15), Total",4
same,"MR, patients","[2]; Cohort A2 (N=15), Total",3
same,"PD, patients","[2]; Cohort A2 (N=15), Total",1
same,"PR, patients","[2]; Cohort A2 (N=15), Total",3
same,CR+PR Rate,"[2]; Cohort A2, 100 mg",2/5
same,CR+PR+MR Rate,"[2]; Cohort A2, 100 mg",3/5
same,"CR, patients","[2]; Cohort A2, 100 mg",0
same,"MR, patients","[2]; Cohort A2, 100 mg",1
same,"PD, patients","[2]; Cohort A2, 100 mg",1
same,"PR, patients","[2]; Cohort A2, 100 mg",2
same,CR+PR Rate,"[2]; Cohort A2, 150 mg",5/10
same,CR+PR+MR Rate,"[2]; Cohort A2, 150 mg",7/10
same,"CR, patients","[2]; Cohort A2, 150 mg",4
same,"MR, patients","[2]; Cohort A2, 150 mg",2
same,"PD, patients","[2]; Cohort A2, 150 mg",0
same,"PR, patients","[2]; Cohort A2, 150 mg",1
same,Course Best overall response is achieved,[2]; [6],6 and 2
same,Patient status at end of course,[2]; [6],Off therapy
same,Course Best overall response is achieved,[2]; [7],4 and 10 and 6 and 2 and 1
same,Patient status at end of course,[2]; [7],Ongoing therapy; also recorded: Off therapy
same,"CR, patients","[2]; Cohort B2 (N=8), Total",1
same,"MR, patients","[2]; Cohort B2 (N=8), Total",3
same,"PD, patients","[2]; Cohort B2 (N=8), Total",3
same,"PR, patients","[2]; Cohort B2 (N=8), Total",1
same,CR+PR Rate,[2]; [8],1/2
same,CR+PR+MR Rate,[2]; [8],1/2
same,"CR, patients",[2]; [8],1
same,"MR, patients",[2]; [8],0
same,"PD, patients",[2]; [8],1
same,"PR, patients",[2]; [8],0
same,CR+PR Rate,[2]; [9],1/6
same,CR+PR+MR Rate,[2]; [9],4/6
same,"CR, patients",[2]; [9],0
same,"MR, patients",[2]; [9],3
same,"PD, patients",[2]; [9],2
same,"PR, patients",[2]; [9],1
same,Course Best overall response is achieved,[2]; [10],2
same,Patient status at end of course,[2]; [10],Off therapy
same,Course Best overall response is achieved,[2]; [11],2
same,Patient status at end of course,[2]; [11],Ongoing therapy; also recorded: Off therapy
same,RR (BOR of CR or PR),[2]; cohort A1 (3/23),13%
same,median time to BOR,"[2]; cohort A1, 11 of 23 patients with SD or better",two
same,patients pre-treated with ALK TKI achieving MR or SD,"[2]; cohort A1, four of nine",44%
same,modified RR (BOR of CR/PR/MR),"[2]; cohort A1, single agent, <18 years",30%
same,RR (BOR of CR/PR),[2]; cohort A2 (7/15),47%
same,median time to BOR,"[2]; cohort A2, 14 of 15 patients with SD or better",four
same,modified RR (BOR of CR/PR/MR),"[2]; cohort A2, single agent, ≥18 years",67%
same,responses in patients with prior ALK TKI,"[2]; cohort A2, three of five",60%
same,median time to BOR of SD or better,[2]; cohort B2,two
same,RR (BOR of CR/PR),"[2]; cohort B2 (2/8), with topotecan/cyclophosphamide",25%
same,patients with MYCN amplification achieving a PR,"[2]; cohort B2, lorlatinib plus topotecan/cyclophosphamide",two of three
same,modified RR (BOR of CR/PR/MR),"[2]; cohort B2, with topotecan/cyclophosphamide, <18 years",63% and 62%
same,Course when BOR obtained,"[2]; individual patients with prior ALK inhibitor, Cohort A1, Dose Level 1",2
same,Course when BOR obtained,"[2]; patients with prior ALK inhibitor, Cohort A1, Dose Level 1",2
same,Course when BOR obtained,"[2]; patients with prior ALK inhibitor, Cohort A1, Dose Level 2",2
same,Course when BOR obtained,"[2]; patients with prior ALK inhibitor, Cohort A1, Dose Level 3",2
same,Course when BOR obtained,"[2]; patients with prior ALK inhibitor, Cohort A1, Dose Level 4",2
same,Course when BOR obtained,"[2]; patients with prior ALK inhibitor, Cohort A1, Dose Level 5",2
same,Course when BOR obtained,"[2]; patients with prior ALK inhibitor, Cohort A2, Dose Level 3A",2
same,Course when BOR obtained,"[2]; patients with prior ALK inhibitor, Cohort B2, Dose Level 4B",2
same,Course when BOR obtained,"[2]; patients with prior ALK inhibitor, Cohort B2, Dose Level 5B",2 and 1
same,Course when BOR obtained,"[2]; prior ALK inhibitor, Cohort A1, Dose Level 2",2
same,Course when BOR obtained,"[2]; prior ALK inhibitor, Cohort A1, Dose Level 3",2
same,Course when BOR obtained,"[2]; prior ALK inhibitor, Cohort A1, Dose Level 4",2
same,Course when BOR obtained,"[2]; prior ALK inhibitor, Cohort A1, Dose Level 5",2
same,Course when BOR obtained,"[2]; prior ALK inhibitor, Cohort B2, Dose Level 4",2
same,Course when BOR obtained,"[2]; prior ALK inhibitor, Cohort B2, Dose Level 5",2 and 1
